One block for each molecule: values may come before it.
What was measured:
[1] = system: two-spotted spider mites (Tetranychus urticae); assay: Acaricidal test for two-spotted spider mites; format: in vivo; details: 500 ppm solution sprayed 2 ml/cup on larvae on kidney bean leaf discs; 25° C.; after 96 hours
Description: [Test Example 1] Acaricidal Test For Two-spotted Spider Mites (Tetranychus urticae)
The leaves of kidney bean plants were punched into 3.0 cm-diameter discs, using a leaf punch, and put onto moistured filter paper in a 7 cm-diameter styrol cup. Ten larvae of two-spotted spider mites (Tetranychus urticae) were put to each leaf. A 5% emulsion (or 25% wettable powder) of a compound of the invention was diluted with water containing a spreading agent to give a 500 ppm solution of the compound. The solution was sprayed over each cup in an amount of 2 ml/cup, using a rotary sprinkler, and the cups were stored in a thermostatic chamber at 25° C. After 96 hours passed, the mites in each cup were observed, and mortality of the mites was determined according to the following equation. Each compound was tested in that manner for two groups of dishes.
Mortality (%)=[number of insect killed/(number of insect killed+number of living insect)]×100

[2] = system: citrus red mite (Panonychus citri); assay: Residual effect test for citrus red mite; format: in vivo; details: Table 4, spray solution 100 ppm, 48 hours
Description: Residual Effect Test for Citrus Red Mite (Panonychus citri)
A 5% emulsion (or 25% wettable powder) of a compound of the invention was diluted with water containing a spreading agent to give a solution of the compound with prescribed concentration. The solution was sprayed over each orange planted in a pot in an amount of 250 ml/pot, using a rotary sprinkler, and the pot were left in the open air. After the prescribed days, the leaves of orange plants were punched into 3.0 cm-diameter discs, using a leaf punch, and put onto moistured filter paper in a 7 cm-diameter styrol cup. Ten larvae of citrus red mite (Panonychus citri) were put to each leaf. Then, the cups were stored in a thermostatic chamber at 25° C. After 48 hours passed, the mites in each cup were observed, and mortality of the mites was determined according to the same equation as in Test Example 1. Each compound was tested in that manner for four groups of dishes.
In the test, the following Compound A described in WO97/40009 was used as a comparative compound. [drawing 35]

SMILES: COc1ccccc1-n1nc(C)c(C(C#N)=C(OC(=O)C(C)(C)C)c2c(Cl)c(C)nn2C)n1 (mixture of isomers) [compound 62]
- mortality [1]: ≥ 80%

SMILES: Cc1nn(-c2ccccc2)nc1/C(C#N)=C(\OC(=O)C(C)(C)C)c1c(C(F)(F)F)nn(C)c1Cl [Compound A]
- mortality at 100 ppm ([2]; 2 days left in the open air after spraying): 17.5%
- mortality at 100 ppm ([2]; 4 days left in the open air after spraying): 40%

- melting point: 117 to 118 °C
SMILES: Cc1nc(C)c(C(O)=C(C#N)c2nn(-c3ccccc3)nc2C)s1 [Compound No. 20, 3-(2,4-Dimethylthiazol-5-yl)-3-hydroxy-2-(5-methyl-2-phenyl-1,2,3-triazol4-yl)acrylonitrile]
